Reference: patent US7301020B2, “Macrolide analogs and methods for identifying same” (priority 2003, dated 2007)

B1: CapG: Ca^2+-dependent, (+)-end actin filament capping protein, cloned from mouse brain cDNA library (protein, UniProt P24452 1-352, looked up)
Macrophage-capping protein: MYTPIPQSGSPFPASVQDPGLHIWRVEKLKPVPIARESHGIFFSGDSYLVLHNGPEEASHLHLWIGQQSSRDEQGACAVLAVHLNTLLGERPVQHREVQGNESDLFMSYFPRGLKYYREGGVESAFHKTTSGARGAAIRKLYQVKGKKNIRATERPLSWDSFNTGDCFILDLGQNIFAWCGGKSNILERNKARDLALAIRDSERQGKAQVEIITDGEEPAEMIQVLGPKPALKEGNPEEDITADQTRPNAQAAALYKVSDATGQMNLTKVADSSPFASELLIPDDCFVLDNGLCAQIYIWKGRKANEKERQAALQVADGFISRMRYSPNTQVEILPQGRESPIFKQFFKNWK

How the values were obtained:
NBT-II cells = assay: Effect of macrolides on NBT-II cells (live cell microscopy); type: cell-based, rat
Description: FIG. 7: Effect of KabC on NBT-II cells. NBT-II cells are imaged after 16 hours of drug treatment. KabC concentrations: (A), Control; (B), 10 nM; (C), 100 nM and (D), 1000 nM.
Cell Culture: Rat bladder NBT-II carcinoma cells and mouse NIH 3T3 fibroblast cells are maintained and treated with external drugs as described in Choidas et al (1998).
Live cell microscopy: A multi-model microscope workstation was used to image phase contrast and fluorescence images of living cells (Choidas et al, 1998). Cells are maintained at 37° in a Hepes based culture medium in a Bioptechs cell perfusion chamber (Choidas et al, 1998).

Prodan-G-actin [1] = biological target: T1, Prodan-G-actin (Oryctolagus cuniculus, UniProt P68135); assay: Kinetic analysis of binding to Prodan-G-actin (stopped-flow and slow phase); set-up: F-actin is purified from rabbit skeletal muscle using a standard protocol; Prodan (Acrylodan) fluorophore, chemical label on the thiol of Cys374; from tissue; host or cells: rabbit skeletal muscle; species or system rabbit
Description: FIG. 3: Kinetic analyses of KabC binding of Prodan labeled G-actin. (A-B). Prodan-actin (0.1 μM) and KabC, loaded into separated syringes, were rapidly mixed within ˜1 msec dead-time. The concentrations of KabC were 0.0 μM (a), 1.0 μM (b), 1.5 μM (c), 2.0 μM (d) and 2.5 μM (data not shown), respectively. The decreases in emission intensity were well fitted with single exponential functions to determine the observed rate, kobs. The observed rates are plotted as a function of the [KabC] in panel (B).
Kinetic analysis of binding reactions. The kinetics of the KabC interaction with Prodan-actin is determined, using an Applied Photophysics SX.18MV Stopped-flow spectrometer, by following the decrease in the emission intensity of Prodan-actin at 25° C. Prodan was excited at 385 nm and emission was collected with a 470 nm (+/−5 nm) band-pass filter. In all cases the decrease in emission intensity was best fit with a single exponential function, which was then used to determine the observed rate, kobs. Kinetic constants of on rate (kon) and off rate (koff) were calculated according to the following equation: kobs=kon[KabC]+koff. The kinetics of the slower binding step observed in the interaction of KabC with Prodan-G-actin interaction is measured by measuring the ratio of fluorescence signals at 465 nm and 530 nm. The decay of this ratio is fit using a single exponential rate.

Prodan-G-actin [2] = biological target: T1, Prodan-G-actin; assay: Competition-binding assay with GS1 and CapG on Prodan-G-actin; set-up: F-actin is purified from rabbit skeletal muscle using a standard protocol; from tissue; host or cells: actin from rabbit skeletal muscle; CapG and GS1 expressed in E. coli M15; species or system rabbit
Description: FIG. 4: (A) CapG: (a), Prodan-G-actin (100 nM), (b), Prodan-G-actin-CapG; (c), same as (b) in the presence of 0.2 μM KabC; (B); GS1: (a), Prodan-G-actin 100 nM; (b), Prodan-G-actin-GS1; (c), same as (b) in the presence of 0.2 μM KabC.
Characterization of actin binding proteins: The actin-binding properties of the ABPs used in this study are evaluated from changes in the fluorescence emission spectrum of Prodan-actin and actin polymerization assays as described by Marriott et al (1988).
Trisoxazolemacrolides specifically compete with GS1 for the (+)-end binding site on actin. Gelsolin, a monomeric 80 kD cytoskeleton protein composed of six domains interacts with actin filaments in a complex, Ca^2+-dependent manner (Janmey et al, 1985; Burtnick et al, 1997). Gelsolin exerts two major effects once bound to an actin filament: first it severs the filament and second it remains tightly bound to the severed (+)-end and serves to block, or cap, further growth. […] Structural analyses of G-actin complexes with GS1 (McLaughlin et al, 1993) and KabC show these unrelated molecules bind to G-actin through common contact sites that include a patch of hydrophobic residues on the surface between sub-domains 1 and 3 and within the cleft that forms between the interface of sub-domains 1 and 3 (McLaughlin et al, 1993;). GS1 binding to Prodan-G-actin shifts the average energy of the fluorescence emission to the red and is accompanied by a decrease in the quantum yield (FIG. 4A) but not to the extent seen in the KabC-G-actin complex (FIG. 2).
Trisoxazolemacrolides specifically compete with CapG for the (+)-end binding site on actin. CapG, a Ca^2+-dependent, (+)-end actin filament capping protein, is found at high levels in macrophage cells where it regulates membrane ruffling and cell protrusions associated with phagocytosis and motility (Botelho et. al., 2000). […] The Ca^2+-dependent binding of CapG to Prodan-G-actin is accompanied by a dramatic blue-shift in the emission spectrum and an increase in quantum yield (FIG. 4B, curve b). The difference in fluorescence emission spectra between free and CapG-bound Prodan-G-actin is used to quantify the parameters for this binding reaction. The G-actin-CapG complex exists as a 1:1 complex and has a dissociation constant of 100 nM (data not shown). […] This conclusion is consistent with a comparison of high-resolution structures of G-actin with GS1 and KabC and a preliminary analysis of a 2.8 Angstrom structure of a CapG mutant (Vorobiev et al, PDB database, 2002). […] However the emission properties of the CapG-Prodan-G-actin complex are unaffected by the binding of LatA, DNAse and thymosin β4 (Tβ4), which is consistent with some structural data showing that these sequestering molecules bind closer to the ATP pocket and DNAse binding loop (Kabsch et al, 1990).

Prodan-labeled G-actin = biological target: T2, Prodan-labeled G-actin (Oryctolagus cuniculus, UniProt P68135); assay: Prodan-G-actin titration: binding stoichiometry and dissociation constant; set-up: species or system rabbit; settings: Prodan-G-actin titration; read-out: dissociation constant of G-actin complex
T2 construct: F-actin is purified from rabbit skeletal muscle using a standard protocol; Prodan (Acrylodan) fluorophore, chemical label on the thiol of Cys374; from tissue; host or cells: rabbit skeletal muscle
Description: FIG. 2: (A), Stoichiometric binding of Prodan-labeled G-actin (1 μM) in G-buffer with KabC at final concentrations of in μm, a: 0.0; b: 0.1; c: 0.2; d: 0.3; e: 0.4; f: 0.5; g: 0.6; h: 0.7; i: 0.8; j: 0.9; k: 1.0; l: 1.1; m: 1.2; n: 1.5 (B), Plot of the integrated intensity in (A) against [KabC] yields a binding stoichiometry of 1:1.
Prodan-actin: Actin is labeled with the thiol probe, Acrylodan (Molecular Probes, Eugene, Oreg.) using a standard protocol (Marriott et al, 1988). Rabbit muscle G-actin is labeled with the thiol reactive, environmentally sensitive probe, Acrylodan, according to the inventor's earlier publication (Marriott et al, 1988). […]
Determination of the binding stoichiometry and dissociation constants for G-actin complexes with ABPs and macrolide drugs: The change in the quantum yield and/or emission energy of Prodan-actin is used to quantify the interaction of CapG and macrolides with G-actin. The stoichiometry of the CapG-G-actin and macrolide-G-actin complex is determined by titrating Prodan-G-actin at 1 μM with increasing amounts of CapG or the macrolide from 0.1^−10 μM. […] The equilibrium binding constant is determined by titrating a constant amount of Prodan labeled G-actin at 0.05˜0.1 μM in G- or F-buffer with incrementally increasing amounts of the macrolide or CapG over a range of 10 nM to 10 μM. […]

Molecule	cytotoxic activity on NBT II epithelia cells (NBT-II cells)	effect of binding on emission properties of CapG-Prodan-G-actin complex (Prodan-G-actin [2])	other results
COC(CC1OC(=O)CC(O)C/C=C/C(=O)C(C)C(OC)c2coc(n2)-c2coc(n2)-c2coc(n2)/C=C/CCC1C)C(C)CCC(=O)C(C)C(C/C=C/N(C)C=O)OC (stereo not drawn) [Hal, halichondramide]	concentration dependent cytotoxic activity		binding steps in reaction with G-actin (Prodan-G-actin [1]): 1st and 2nd-binding steps are common
C/C1=C/C(=O)O[C@@H]2C[C@@H](CC[C@H](C)/C=C\C=C\CC1)O[C@@](O)([C@@H]1CSC(=O)N1)C2 [LatA]		unaffected	
DNAse		unaffected	
Ulapualide A [UlaA]	concentration dependent cytotoxic activity		binding steps in reaction with G-actin (Prodan-G-actin [1]): 1st and 2nd-binding steps are common
CO[C@H]1C[C@H](CC[C@H](C)[C@H](O)[C@H](C)[C@H]2OC(=O)/C=C/C(C)=C/C[C@H](O)C[C@@H]3C=CC[C@@H](C[C@H](OC)[C@@H](C)[C@@H](O)C[C@@H](O)[C@H](C)[C@@H]([C@@H](C)[C@@H](O)[C@@H](C)CC[C@H]4C[C@H](OC)C[C@H](C)O4)OC(=O)/C=C/C(C)=C/C[C@H](O)C[C@@H]4C=CC[C@@H](C[C@H](OC)[C@@H](C)[C@@H](O)C[C@@H](O)[C@@H]2C)O4)O3)O[C@@H](C)C1 [SwiA, Swinholide A]	concentration dependent cytotoxic activity		binding site on actin by competition-binding assay (Prodan-G-actin [2]): bind to the same site on actin as KabC, CapG and GS1
CO[C@H]1C[C@H](CC[C@H](C)[C@H](O)[C@H](C)[C@H]2OC(=O)/C(C)=C/C[C@H](O)C[C@@H]3C=CC[C@@H](C[C@H](OC)[C@@H](C)[C@@H](O)C[C@@H](O)[C@H](C)[C@@H]([C@@H](C)[C@@H](O)[C@@H](C)CC[C@H]4C[C@H](OC)C[C@H](C)O4)OC(=O)/C(C)=C/C[C@H](O)C[C@@H]4C=CC[C@@H](C[C@H](OC)[C@@H](C)[C@@H](O)C[C@@H](O)[C@@H]2C)O4)O3)O[C@@H](C)C1 [MisA, misakinolide A]	concentration dependent cytotoxic activity		binding site on actin by competition-binding assay (Prodan-G-actin [2]): bind to the same site on actin as KabC, CapG and GS1
thymosin β4: actin monomer sequestering protein		unaffected	
B1			Kd (Prodan-labeled G-actin): 100 nM
